Measured values taken from the supplement of paper PMC10307832.

Columns and labels:
Assay in all cases: relative viability (nuclei count vs DMSO), 5 days (fraction); higher = more cells survive
NCI-H1755 = test system: NCI-H1755
Procedure, shortened: (§1)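 Lung cancer cell lines, seeded in 1536-well plates, were treated the following day by pin tool with a single drug or with five library-drug doses (not always all listed) in √10 steps on top of a fixed anchor-drug dose. Cells were fixed and nuclei stained in one step after 5 days, and nuclei were counted. Relative viability is the nuclei count for treated wells divided by that for vehicle wells, reported as medians of duplicate plates.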

HCC-366 = test system: HCC-366
Procedure, shortened: as §1

SK-LU-1 = test system: SK-LU-1
Procedure, shortened: as §1

NCI-H522 = test system: NCI-H522
Procedure, shortened: as §1

HCC-827 = test system: HCC-827
Procedure, shortened: as §1

NCI-H460 = test system: NCI-H460
Procedure, shortened: as §1

NCI-H23 = test system: NCI-H23
Procedure, shortened: as §1

EMC-BAC-2 = test system: EMC-BAC-2
Procedure, shortened: as §1

A-427 = test system: A-427
Procedure, shortened: as §1

CAL-12T = test system: CAL-12T
Procedure, shortened: as §1

HOP-62 = test system: HOP-62
Procedure, shortened: as §1

NCI-H1975 = test system: NCI-H1975
Procedure, shortened: as §1

HARA = test system: HARA
Procedure, shortened: as §1

NCI-H1355 = test system: NCI-H1355
Procedure, shortened: as §1

NCI-H1437 = test system: NCI-H1437
Procedure, shortened: as §1

LCLC-103H = test system: LCLC-103H
Procedure, shortened: as §1

NCI-H727 = test system: NCI-H727
Procedure, shortened: as §1

NCI-H1915 = test system: NCI-H1915
Procedure, shortened: as §1

NCI-H1792 = test system: NCI-H1792
Procedure, shortened: as §1

SW 1573 = test system: SW 1573
Procedure, shortened: as §1

COR-L 105 = test system: COR-L 105
Procedure, shortened: as §1

NCI-H1395 = test system: NCI-H1395
Procedure, shortened: as §1

NCI-H2009 = test system: NCI-H2009
Procedure, shortened: as §1

NCI-H2228 = test system: NCI-H2228
Procedure, shortened: as §1

Compound: COc1cc(N2CCC(C(N)=O)CC2)ccc1Nc1nc(N)c(Cl)c(Nc2ccccc2S(=O)(=O)C(C)C)n1 [HG-5-88-01] + N=C(N)NC(=N)NCCc1ccccc1 [Phenformin] (partner 250 µM)
- relative viability (NCI-H1755; first compound 0.04 µM): 0.634
- relative viability (NCI-H1755; first compound 0.1265 µM): 0.612
- relative viability (NCI-H1755; first compound 0.4 µM): 0.605
- relative viability (NCI-H1755; first compound 1.265 µM): 0.616
- relative viability (NCI-H1755; first compound 4 µM): 0.521
- relative viability (HCC-366; first compound 0.04 µM): 0.685
- relative viability (HCC-366; first compound 0.1265 µM): 0.634
- relative viability (HCC-366; first compound 0.4 µM): 0.581
- relative viability (HCC-366; first compound 1.265 µM): 0.681
- relative viability (HCC-366; first compound 4 µM): 0.476
- relative viability (SK-LU-1; first compound 0.04 µM): 0.581
- relative viability (SK-LU-1; first compound 0.1265 µM): 0.594
- relative viability (SK-LU-1; first compound 0.4 µM): 0.507
- relative viability (SK-LU-1; first compound 1.265 µM): 0.463
- relative viability (SK-LU-1; first compound 4 µM): 0.288
- relative viability (NCI-H522; first compound 0.04 µM): 0.711
- relative viability (NCI-H522; first compound 0.1265 µM): 0.657
- relative viability (NCI-H522; first compound 0.4 µM): 0.697
- relative viability (NCI-H522; first compound 1.265 µM): 0.558
- relative viability (NCI-H522; first compound 4 µM): 0.502
- relative viability (HCC-827; first compound 0.04 µM): 0.432
- relative viability (HCC-827; first compound 0.1265 µM): 0.413
- relative viability (HCC-827; first compound 0.4 µM): 0.384
- relative viability (HCC-827; first compound 1.265 µM): 0.29
- relative viability (HCC-827; first compound 4 µM): 0.249
- relative viability (NCI-H460; first compound 0.04 µM): 0.497
- relative viability (NCI-H460; first compound 0.1265 µM): 0.491
- relative viability (NCI-H460; first compound 0.4 µM): 0.587
- relative viability (NCI-H460; first compound 1.265 µM): 0.51
- relative viability (NCI-H460; first compound 4 µM): 0.214
- relative viability (NCI-H23; first compound 0.04 µM): 0.767
- relative viability (NCI-H23; first compound 0.1265 µM): 0.833
- relative viability (NCI-H23; first compound 0.4 µM): 0.786
- relative viability (NCI-H23; first compound 1.265 µM): 0.868
- relative viability (NCI-H23; first compound 4 µM): 0.441
- relative viability (EMC-BAC-2; first compound 0.04 µM): 0.541
- relative viability (EMC-BAC-2; first compound 0.1265 µM): 0.491
- relative viability (EMC-BAC-2; first compound 0.4 µM): 0.442
- relative viability (EMC-BAC-2; first compound 1.265 µM): 0.507
- relative viability (EMC-BAC-2; first compound 4 µM): 0.486
- relative viability (A-427; first compound 0.04 µM): 0.36
- relative viability (A-427; first compound 0.1265 µM): 0.336
- relative viability (A-427; first compound 0.4 µM): 0.344
- relative viability (A-427; first compound 1.265 µM): 0.367
- relative viability (A-427; first compound 4 µM): 0.214
- relative viability (CAL-12T; first compound 0.04 µM): 0.543
- relative viability (CAL-12T; first compound 0.1265 µM): 0.572
- relative viability (CAL-12T; first compound 0.4 µM): 0.533
- relative viability (CAL-12T; first compound 1.265 µM): 0.392
- relative viability (CAL-12T; first compound 4 µM): 0.253
- relative viability (HOP-62; first compound 0.04 µM): 0.662
- relative viability (HOP-62; first compound 0.1265 µM): 0.65
- relative viability (HOP-62; first compound 0.4 µM): 0.654
- relative viability (HOP-62; first compound 1.265 µM): 0.725
- relative viability (HOP-62; first compound 4 µM): 0.718
- relative viability (NCI-H1975; first compound 0.04 µM): 0.437
- relative viability (NCI-H1975; first compound 0.1265 µM): 0.416
- relative viability (NCI-H1975; first compound 0.4 µM): 0.354
- relative viability (NCI-H1975; first compound 1.265 µM): 0.365
- relative viability (NCI-H1975; first compound 4 µM): 0.188
- relative viability (HARA; first compound 0.04 µM): 0.439
- relative viability (HARA; first compound 0.1265 µM): 0.513
- relative viability (HARA; first compound 0.4 µM): 0.48
- relative viability (HARA; first compound 1.265 µM): 0.432
- relative viability (HARA; first compound 4 µM): 0.324
- relative viability (NCI-H1355; first compound 0.04 µM): 0.487
- relative viability (NCI-H1355; first compound 0.1265 µM): 0.493
- relative viability (NCI-H1355; first compound 0.4 µM): 0.431
- relative viability (NCI-H1355; first compound 1.265 µM): 0.455
- relative viability (NCI-H1355; first compound 4 µM): 0.316
- relative viability (NCI-H1437; first compound 0.04 µM): 0.37
- relative viability (NCI-H1437; first compound 0.1265 µM): 0.335
- relative viability (NCI-H1437; first compound 0.4 µM): 0.466
- relative viability (NCI-H1437; first compound 1.265 µM): 0.37
- relative viability (NCI-H1437; first compound 4 µM): 0.194
- relative viability (LCLC-103H; first compound 0.04 µM): 0.332
- relative viability (LCLC-103H; first compound 0.1265 µM): 0.342
- relative viability (LCLC-103H; first compound 0.4 µM): 0.311
- relative viability (LCLC-103H; first compound 1.265 µM): 0.308
- relative viability (LCLC-103H; first compound 4 µM): 0.302
- relative viability (NCI-H727; first compound 0.04 µM): 0.554
- relative viability (NCI-H727; first compound 0.1265 µM): 0.484
- relative viability (NCI-H727; first compound 0.4 µM): 0.394
- relative viability (NCI-H727; first compound 1.265 µM): 0.416
- relative viability (NCI-H727; first compound 4 µM): 0.352
- relative viability (NCI-H1915; first compound 0.04 µM): 0.38
- relative viability (NCI-H1915; first compound 0.1265 µM): 0.354
- relative viability (NCI-H1915; first compound 0.4 µM): 0.381
- relative viability (NCI-H1915; first compound 1.265 µM): 0.416
- relative viability (NCI-H1915; first compound 4 µM): 0.328
- relative viability (NCI-H1792; first compound 0.04 µM): 0.897
- relative viability (NCI-H1792; first compound 0.1265 µM): 0.647
- relative viability (NCI-H1792; first compound 0.4 µM): 0.548
- relative viability (NCI-H1792; first compound 1.265 µM): 0.525
- relative viability (NCI-H1792; first compound 4 µM): 0.291
- relative viability (SW 1573; first compound 0.04 µM): 0.335
- relative viability (SW 1573; first compound 0.1265 µM): 0.368
- relative viability (SW 1573; first compound 0.4 µM): 0.324
- relative viability (SW 1573; first compound 1.265 µM): 0.229
- relative viability (SW 1573; first compound 4 µM): 0.344
- relative viability (COR-L 105; first compound 0.04 µM): 0.61
- relative viability (COR-L 105; first compound 0.1265 µM): 0.511
- relative viability (COR-L 105; first compound 0.4 µM): 0.47
- relative viability (COR-L 105; first compound 1.265 µM): 0.324
- relative viability (COR-L 105; first compound 4 µM): 0.296
- relative viability (NCI-H1395; first compound 0.04 µM): 0.423
- relative viability (NCI-H1395; first compound 0.1265 µM): 0.422
- relative viability (NCI-H1395; first compound 0.4 µM): 0.45
- relative viability (NCI-H1395; first compound 1.265 µM): 0.449
- relative viability (NCI-H1395; first compound 4 µM): 0.463
- relative viability (NCI-H2009; first compound 0.04 µM): 0.475
- relative viability (NCI-H2009; first compound 0.1265 µM): 0.527
- relative viability (NCI-H2009; first compound 0.4 µM): 0.534
- relative viability (NCI-H2009; first compound 1.265 µM): 0.484
- relative viability (NCI-H2009; first compound 4 µM): 0.366
- relative viability (NCI-H2228; first compound 0.04 µM): 0.146
- relative viability (NCI-H2228; first compound 0.1265 µM): 0.124
- relative viability (NCI-H2228; first compound 0.4 µM): 0.174
- relative viability (NCI-H2228; first compound 1.265 µM): 0.0974
- relative viability (NCI-H2228; first compound 4 µM): 0.0828
